Measurements: patent publication US20240210412A1, “SULFONYL-TRIAZOLE COMPOUNDS USEFUL AS LIGANDS AND INHIBITORS OF PROSTAGLANDIN REDUCTASE 2” (University of Virginia Patent Foundation, priority 2021, published 2024)

Tests used:
Assay in all cases: SILAC LC-MS ABPP
Format in all cases: cell-based
Conditions in all cases: 25 μM 2 h, live DM93 cells
O94925 = target: T1, O94925 (Homo sapiens, UniProt O94925)
T1 construct: endogenous in cells; host or cells: DM93 cells (SILAC)
Outline: (§1)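 DM93 melanoma cells under SILAC: light treated with DMSO, heavy with SuTEx ligand (25 μM, 2 h, 37 °C) in serum-free medium, then HHS-475 alkyne probe (100 μM, 2 h, 37 °C). Soluble proteomes clicked to desthiobiotin-PEG3-azide by CuAAC, mixed 1:1, trypsinised, avidin-enriched; probe-modified tyrosine peptides quantified by LC-MS/MS.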

O95163 = target: T2, O95163 (Homo sapiens, UniProt O95163)
T2 construct: endogenous in cells; host or cells: DM93 cells (SILAC)
T2 sequence (O95163 whole entry): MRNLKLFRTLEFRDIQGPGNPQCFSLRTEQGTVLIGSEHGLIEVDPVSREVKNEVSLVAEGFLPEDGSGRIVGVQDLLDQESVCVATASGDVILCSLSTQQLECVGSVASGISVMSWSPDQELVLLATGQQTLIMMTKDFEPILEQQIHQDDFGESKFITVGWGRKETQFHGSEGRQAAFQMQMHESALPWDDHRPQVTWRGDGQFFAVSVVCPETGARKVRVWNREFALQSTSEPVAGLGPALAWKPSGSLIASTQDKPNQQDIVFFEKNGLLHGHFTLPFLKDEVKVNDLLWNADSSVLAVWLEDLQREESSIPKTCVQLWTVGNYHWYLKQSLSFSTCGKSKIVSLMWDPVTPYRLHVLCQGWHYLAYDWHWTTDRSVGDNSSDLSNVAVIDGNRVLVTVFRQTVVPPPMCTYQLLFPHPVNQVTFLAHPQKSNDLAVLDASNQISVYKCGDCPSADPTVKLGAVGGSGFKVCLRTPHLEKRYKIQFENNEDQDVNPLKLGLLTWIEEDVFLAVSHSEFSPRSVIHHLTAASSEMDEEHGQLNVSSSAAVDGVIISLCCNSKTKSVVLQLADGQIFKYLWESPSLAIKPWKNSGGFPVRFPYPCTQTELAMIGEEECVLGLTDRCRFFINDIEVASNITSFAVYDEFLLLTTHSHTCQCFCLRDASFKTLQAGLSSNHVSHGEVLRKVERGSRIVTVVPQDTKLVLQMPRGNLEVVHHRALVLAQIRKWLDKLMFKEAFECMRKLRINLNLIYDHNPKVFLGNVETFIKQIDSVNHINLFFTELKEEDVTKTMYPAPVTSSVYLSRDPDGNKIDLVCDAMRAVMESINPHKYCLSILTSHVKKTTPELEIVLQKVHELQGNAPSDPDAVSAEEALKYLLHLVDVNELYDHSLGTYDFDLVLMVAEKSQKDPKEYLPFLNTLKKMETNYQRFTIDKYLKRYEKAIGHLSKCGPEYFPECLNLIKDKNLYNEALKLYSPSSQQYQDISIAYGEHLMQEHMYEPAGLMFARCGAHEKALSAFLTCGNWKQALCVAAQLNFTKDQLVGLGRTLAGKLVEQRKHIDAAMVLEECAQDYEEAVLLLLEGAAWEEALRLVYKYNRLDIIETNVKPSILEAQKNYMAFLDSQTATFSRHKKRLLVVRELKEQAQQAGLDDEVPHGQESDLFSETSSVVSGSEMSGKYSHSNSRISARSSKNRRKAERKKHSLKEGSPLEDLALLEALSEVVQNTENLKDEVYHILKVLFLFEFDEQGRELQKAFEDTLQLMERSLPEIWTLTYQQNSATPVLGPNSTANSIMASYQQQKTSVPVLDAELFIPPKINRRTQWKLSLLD
Outline: as §1

Q969T7 = target: T3, Q969T7 (Homo sapiens, UniProt Q969T7)
T3 construct: endogenous in cells; host or cells: DM93 cells (SILAC), live-cell treatment
Outline: as §1

Q86VS8 = target: T4, Q86VS8 (Homo sapiens, UniProt Q86VS8)
T4 construct: endogenous in cells; host or cells: DM93 cells (SILAC), live-cell treatment
Outline: as §1

P52597 = target: T5, P52597 (Homo sapiens, UniProt P52597)
T5 construct: endogenous in cells; host or cells: DM93 cells (SILAC)
T5 sequence (P52597 whole entry): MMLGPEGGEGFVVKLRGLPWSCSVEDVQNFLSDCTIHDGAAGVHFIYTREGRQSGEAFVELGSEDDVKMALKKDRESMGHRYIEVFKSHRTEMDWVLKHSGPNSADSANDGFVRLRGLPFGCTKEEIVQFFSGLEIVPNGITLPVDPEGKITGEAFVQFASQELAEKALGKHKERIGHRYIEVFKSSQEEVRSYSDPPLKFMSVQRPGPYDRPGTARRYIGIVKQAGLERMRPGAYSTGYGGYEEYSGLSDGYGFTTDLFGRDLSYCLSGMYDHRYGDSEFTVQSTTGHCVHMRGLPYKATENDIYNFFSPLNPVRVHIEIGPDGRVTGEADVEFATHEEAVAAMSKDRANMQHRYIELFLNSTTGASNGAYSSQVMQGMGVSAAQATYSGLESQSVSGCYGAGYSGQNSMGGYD
Outline: as §1

Q15654 = target: T6, Q15654 (Homo sapiens, UniProt Q15654)
T6 construct: performing SuTEx compound screening directly in cells; endogenous in cells; host or cells: DM93 cells (SILAC), soluble fraction
T6 sequence (Q15654 whole entry): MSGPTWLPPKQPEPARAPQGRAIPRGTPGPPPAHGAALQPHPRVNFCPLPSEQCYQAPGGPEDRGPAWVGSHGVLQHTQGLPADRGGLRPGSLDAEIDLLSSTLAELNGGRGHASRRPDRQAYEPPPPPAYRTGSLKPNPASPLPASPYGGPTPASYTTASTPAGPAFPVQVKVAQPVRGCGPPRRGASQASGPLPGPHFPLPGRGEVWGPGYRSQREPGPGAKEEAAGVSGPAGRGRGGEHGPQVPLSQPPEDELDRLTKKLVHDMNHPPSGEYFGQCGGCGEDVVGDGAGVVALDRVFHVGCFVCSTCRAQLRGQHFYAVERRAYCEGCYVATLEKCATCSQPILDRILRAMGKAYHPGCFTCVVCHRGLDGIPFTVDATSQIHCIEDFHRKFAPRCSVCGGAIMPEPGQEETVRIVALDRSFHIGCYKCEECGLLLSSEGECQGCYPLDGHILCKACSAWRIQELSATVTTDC
Outline: as §1

Q99797 = target: T7, Q99797 (Homo sapiens, UniProt Q99797)
T7 construct: endogenous in cells; host or cells: DM93 cells (SILAC), treated live; soluble proteome analysed
Outline: as §1

Q12965 = target: T8, Q12965 (Homo sapiens, UniProt Q12965)
T8 construct: performing SuTEx compound screening directly in cells; endogenous in cells; host or cells: DM93 cells (SILAC)
Outline: as §1

Q9NZQ3 = target: T9, Q9NZQ3 (Homo sapiens, UniProt Q9NZQ3)
T9 construct: endogenous in cells; host or cells: DM93 cells (SILAC)
Outline: as §1

Q16576 = target: T10, Q16576 (Homo sapiens, UniProt Q16576)
T10 construct: performing SuTEx compound screening directly in cells; endogenous in cells; host or cells: DM93 cells (SILAC), soluble fraction
T10 sequence (Q16576 whole entry): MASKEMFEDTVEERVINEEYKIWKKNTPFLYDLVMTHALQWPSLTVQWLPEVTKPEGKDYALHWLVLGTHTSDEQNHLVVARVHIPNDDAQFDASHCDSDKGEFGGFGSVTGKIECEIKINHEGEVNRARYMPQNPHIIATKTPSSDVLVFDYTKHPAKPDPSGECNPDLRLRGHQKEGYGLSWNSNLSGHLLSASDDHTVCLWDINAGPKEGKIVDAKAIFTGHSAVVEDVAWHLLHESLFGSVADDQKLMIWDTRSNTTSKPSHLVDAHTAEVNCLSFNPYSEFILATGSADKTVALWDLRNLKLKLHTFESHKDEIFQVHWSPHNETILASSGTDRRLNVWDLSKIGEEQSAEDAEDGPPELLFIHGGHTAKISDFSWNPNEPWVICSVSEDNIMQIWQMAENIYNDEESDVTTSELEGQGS
Outline: as §1

Q9BUJ2 = target: T11, Q9BUJ2 (Homo sapiens, UniProt Q9BUJ2)
T11 construct: endogenous in cells; host or cells: DM93 cells (SILAC), treated live; soluble proteome analysed
Outline: as §1

Q09028 = target: T12, Q09028 (Homo sapiens, UniProt Q09028)
T12 construct: performing SuTEx compound screening directly in cells; endogenous in cells; host or cells: DM93 cells (SILAC)
T12 sequence (Q09028 whole entry): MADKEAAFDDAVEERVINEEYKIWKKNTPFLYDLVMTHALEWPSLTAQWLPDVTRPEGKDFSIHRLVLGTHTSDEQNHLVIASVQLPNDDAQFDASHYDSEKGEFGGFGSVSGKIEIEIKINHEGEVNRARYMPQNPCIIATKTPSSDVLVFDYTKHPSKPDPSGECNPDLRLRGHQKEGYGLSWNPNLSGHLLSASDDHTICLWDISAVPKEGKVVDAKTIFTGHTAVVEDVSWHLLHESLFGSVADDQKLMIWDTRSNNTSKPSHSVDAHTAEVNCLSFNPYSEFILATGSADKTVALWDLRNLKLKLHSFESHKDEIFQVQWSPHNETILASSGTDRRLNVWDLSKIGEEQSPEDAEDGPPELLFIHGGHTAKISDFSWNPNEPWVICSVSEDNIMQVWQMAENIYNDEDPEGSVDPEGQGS
Outline: as §1

P36507 = target: T13, P36507 (Homo sapiens, UniProt P36507)
T13 construct: endogenous in cells; host or cells: DM93 (SILAC)
Outline: as §1

Q5T6F2 = target: T14, Q5T6F2 (Homo sapiens, UniProt Q5T6F2)
T14 construct: performing SuTEx compound screening directly in cells; endogenous in cells; host or cells: DM93 cells (SILAC), soluble fraction
T14 sequence (Q5T6F2 whole entry): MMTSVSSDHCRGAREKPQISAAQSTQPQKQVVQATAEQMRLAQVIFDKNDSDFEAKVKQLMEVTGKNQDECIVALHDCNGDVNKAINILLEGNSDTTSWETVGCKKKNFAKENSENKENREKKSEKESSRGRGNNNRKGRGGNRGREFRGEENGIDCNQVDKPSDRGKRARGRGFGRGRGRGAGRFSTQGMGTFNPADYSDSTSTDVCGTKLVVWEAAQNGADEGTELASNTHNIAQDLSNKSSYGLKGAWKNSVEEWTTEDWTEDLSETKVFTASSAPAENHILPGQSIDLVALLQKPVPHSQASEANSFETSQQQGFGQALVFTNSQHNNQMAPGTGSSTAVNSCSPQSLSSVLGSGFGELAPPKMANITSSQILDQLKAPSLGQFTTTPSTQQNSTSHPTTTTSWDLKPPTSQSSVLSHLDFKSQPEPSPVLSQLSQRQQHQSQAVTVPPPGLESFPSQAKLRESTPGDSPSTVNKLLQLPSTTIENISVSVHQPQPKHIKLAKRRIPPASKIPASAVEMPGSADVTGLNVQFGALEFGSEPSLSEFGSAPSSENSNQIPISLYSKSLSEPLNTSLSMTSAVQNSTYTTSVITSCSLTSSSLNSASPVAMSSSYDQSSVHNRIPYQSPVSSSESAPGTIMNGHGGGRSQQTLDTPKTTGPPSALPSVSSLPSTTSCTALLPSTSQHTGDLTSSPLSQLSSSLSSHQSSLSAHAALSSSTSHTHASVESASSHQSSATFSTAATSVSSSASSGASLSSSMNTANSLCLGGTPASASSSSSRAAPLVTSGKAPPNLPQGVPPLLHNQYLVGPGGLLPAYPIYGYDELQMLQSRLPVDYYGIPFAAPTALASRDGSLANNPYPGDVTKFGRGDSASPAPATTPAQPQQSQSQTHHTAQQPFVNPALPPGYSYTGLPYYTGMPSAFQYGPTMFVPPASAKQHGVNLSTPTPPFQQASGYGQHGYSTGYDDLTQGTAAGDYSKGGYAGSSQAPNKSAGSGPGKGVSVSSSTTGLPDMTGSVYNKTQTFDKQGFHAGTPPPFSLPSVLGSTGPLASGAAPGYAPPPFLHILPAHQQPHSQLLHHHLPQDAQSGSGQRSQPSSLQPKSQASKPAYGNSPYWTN
Outline: as §1

P62979 = target: T15, P62979 (Homo sapiens, UniProt P62979)
T15 construct: performing SuTEx compound screening directly in cells; endogenous in cells; host or cells: DM93 cells (SILAC)
Outline: as §1

P57081 = target: T16, P57081 (Homo sapiens, UniProt P57081)
T16 construct: Probe-modified proteins from the soluble fraction were conjugated to a desthiobiotin-azide tag; endogenous in cells; host or cells: DM93 cells (SILAC)
Outline: as §1

P43490 = target: T17, P43490 (Homo sapiens, UniProt P43490)
T17 construct: endogenous in cells; host or cells: DM93 cells (SILAC)
Outline: as §1

T1 sequence (O94925 55-669): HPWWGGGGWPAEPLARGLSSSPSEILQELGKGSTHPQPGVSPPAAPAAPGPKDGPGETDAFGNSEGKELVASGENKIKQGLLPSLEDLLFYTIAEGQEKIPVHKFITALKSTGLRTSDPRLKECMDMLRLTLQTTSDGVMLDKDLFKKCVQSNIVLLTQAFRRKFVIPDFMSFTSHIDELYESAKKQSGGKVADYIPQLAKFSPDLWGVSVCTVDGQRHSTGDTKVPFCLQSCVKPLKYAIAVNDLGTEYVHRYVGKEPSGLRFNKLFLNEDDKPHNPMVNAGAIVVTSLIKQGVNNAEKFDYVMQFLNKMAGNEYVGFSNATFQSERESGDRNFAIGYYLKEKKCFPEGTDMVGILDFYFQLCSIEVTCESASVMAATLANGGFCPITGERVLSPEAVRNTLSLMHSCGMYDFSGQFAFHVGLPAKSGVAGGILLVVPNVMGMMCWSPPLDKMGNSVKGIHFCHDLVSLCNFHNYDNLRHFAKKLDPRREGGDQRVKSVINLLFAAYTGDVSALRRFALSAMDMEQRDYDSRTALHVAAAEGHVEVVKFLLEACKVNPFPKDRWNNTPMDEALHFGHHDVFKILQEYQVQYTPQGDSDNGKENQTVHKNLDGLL

In the case of O=C(NC1CC1)c1ccc(S(=O)(=O)n2cncn2)cc1 [HHS-0101, 4-((1H-1,2,4-triazol-1-yl)sulfonyl)-N-cyclopropylbenzamide], the “liganded tyrosine site 145” value (O94925) is reported as “HHS0101.Y (tyrosine sites that showed >80% reductions (SR >5) in probe labeling in cells treated with compounds (liganded sites))”, the “liganded tyrosine site 304” value (O94925) is reported as “HHS0101.Y (tyrosine sites that showed >80% reductions (SR >5) in probe labeling in cells treated with compounds (liganded sites))” and the “liganded tyrosine site 957” value (O95163) is reported as “HHS0101.Y|HHS0301.Y|HHS0401.Y (tyrosine sites that showed >80% reductions (SR >5) in probe labeling in cells treated with compounds (liganded sites))”. For the same compound, the “liganded tyrosine site 85” value (Q969T7) was “HHS0101.Y (tyrosine sites that showed >80% reductions (SR >5) in probe labeling in cells treated with compounds (liganded sites))”, the “liganded tyrosine site 323” value (Q86VS8) was “HHS0101.Y|HHS0401.Y|HHS0701.Y (tyrosine sites that showed >80% reductions (SR >5) in probe labeling in cells treated with compounds (liganded sites))” and the “liganded tyrosine site 210” value (P52597) was “HHS0101.Y|HHS0201.Y|HHS0701.Y (tyrosine sites that showed >80% reductions (SR >5) in probe labeling in cells treated with compounds (liganded sites))”. For the same compound, the “liganded tyrosine site 298” value (P52597) was “HHS0101.Y|HHS0701.Y (tyrosine sites that showed >80% reductions (SR >5) in probe labeling in cells treated with compounds (liganded sites))”.
With O=C(NCC1CC1)c1ccc(S(=O)(=O)n2cncn2)cc1 [HHS-0201, 4-((1H-1,2,4-triazol-1-yl)sulfonyl)-N-(cyclopropylmethyl)benzamide] the “liganded tyrosine site 157” value (Q15654) was “HHS0201.Y (tyrosine sites that showed >80% reductions (SR >5) in probe labeling in cells treated with compounds (liganded sites))” and the “liganded tyrosine site 273” value (Q99797) was “HHS0201.Y (tyrosine sites that showed >80% reductions (SR >5) in probe labeling in cells treated with compounds (liganded sites))”.
For O=C(NC1CCCCC1)c1ccc(S(=O)(=O)n2cncn2)cc1 [HHS-0301, 4-((1H-1,2,4-triazol-1-yl)sulfonyl)-N-cyclohexylbenzamide], the “liganded tyrosine site 9” value (Q12965) was “HHS0301.Y (tyrosine sites that showed >80% reductions (SR >5) in probe labeling in cells treated with compounds (liganded sites))”, the “liganded tyrosine site 52” value (Q9NZQ3) was “HHS0301.Y (tyrosine sites that showed >80% reductions (SR >5) in probe labeling in cells treated with compounds (liganded sites))” and the “liganded tyrosine site 153” value (Q16576) was “HHS0301.Y|HHS0701.Y (tyrosine sites that showed >80% reductions (SR >5) in probe labeling in cells treated with compounds (liganded sites))”. For the same compound, the “liganded tyrosine site 111” value (Q9BUJ2) was “HHS0301.Y|HHS0701.Y (tyrosine sites that showed >80% reductions (SR >5) in probe labeling in cells treated with compounds (liganded sites))” and the “liganded tyrosine site 154” value (Q09028) was “HHS0301.Y|HHS0701.Y (tyrosine sites that showed >80% reductions (SR >5) in probe labeling in cells treated with compounds (liganded sites))”.
In the case of O=C(NCc1ccccc1)c1ccc(S(=O)(=O)n2cncn2)cc1 [HHS-0401, 4-((1H-1,2,4-triazol-1-yl)sulfonyl)-N-benzylbenzamide], the “liganded tyrosine site 244” value (P36507) is reported as “HHS0401.Y (tyrosine sites that showed >80% reductions (SR >5) in probe labeling in cells treated with compounds (liganded sites))”, the “liganded tyrosine site 823” value (Q5T6F2) is reported as “HHS0401.Y (tyrosine sites that showed >80% reductions (SR >5) in probe labeling in cells treated with compounds (liganded sites))” and the “liganded tyrosine site 825” value (Q5T6F2) is reported as “HHS0401.Y (tyrosine sites that showed >80% reductions (SR >5) in probe labeling in cells treated with compounds (liganded sites))”. For the same compound, the “liganded tyrosine site 148” value (P62979) was “HHS0401.Y (tyrosine sites that showed >80% reductions (SR >5) in probe labeling in cells treated with compounds (liganded sites))” and the “liganded tyrosine site 371” value (P57081) was “HHS0401.Y (tyrosine sites that showed >80% reductions (SR >5) in probe labeling in cells treated with compounds (liganded sites))”.
With O=C(c1ccc(S(=O)(=O)n2cncn2)cc1)N1CCC(c2ccccc2)CC1 [HHS-0701, (4-((1H-1,2,4-triazol-1-yl)sulfonyl)phenyl)(4-phenylpiperidin-1-yl)methanone] the “liganded tyrosine site 188” value (P43490) was “HHS0701.Y (tyrosine sites that showed >80% reductions (SR >5) in probe labeling in cells treated with compounds (liganded sites))”.
